Reference: ChEMBL document CHEMBL1201862, “PubChem BioAssay data set” (2004)
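Grown in 96-well plates, cells were treated for 48 hours with each compound at five concentrations. Insufficient inhibition: endpoint recorded as highest concentration tested. Abbreviation: GI50, concentration required for 50% inhibition of growth.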 Calls of active or inactive are those of the source. No stated cut-off is given here; in the data, active = GI50 up to about 1.1 µM and inactive = higher.

Tests used:
Assay in all cases: inhibition of tumour cell growth, NCI panel, 48 h
[1] = tested on: HCC 2998
[2] = tested on: SK-MEL-2
[3] = tested on: OVCAR-3
[4] = tested on: A549
[5] = tested on: RXF 393
[6] = tested on: SF-268
[7] = tested on: M14
[8] = tested on: Malme-3M
[9] = tested on: SW-620
[10] = tested on: 786-0
[11] = tested on: SK-MEL-28
[12] = tested on: CAKI-1
[13] = tested on: IGROV-1
[14] = tested on: KM12
[15] = tested on: HOP-92
[16] = tested on: NCI-H226
[17] = tested on: LOX IMVI
[18] = tested on: SR

Measured: GI50

O=C1Nc2ccccc2C12CCCC2
inactive: [1] > 100 µM | [2] > 100 µM | [3] > 100 µM | [4] > 100 µM | [5] > 100 µM | [6] > 100 µM | [7] > 100 µM | [8] > 100 µM | [9] > 100 µM | [10] > 100 µM | [11] > 100 µM | [12] > 100 µM | [13] > 100 µM | [14] > 100 µM

CN1CCN2c3ccccc3CC(C#N)(C#N)C2C1 (centres undefined)
inactive: [1] > 100 µM | [15] > 100 µM | [2] > 100 µM | [3] > 100 µM | [16] > 100 µM | [4] > 100 µM | [5] > 100 µM | [6] > 100 µM | [7] > 100 µM | [8] > 100 µM | [17] > 100 µM | [9] > 100 µM | [10] > 100 µM | [11] > 100 µM | [12] > 100 µM | [13] > 100 µM | [14] > 100 µM

COc1ccc2nccc(C3OC(=O)N4CCC(=O)CC34)c2c1 (centres undefined)
inactive: [15] 67.1 µM | [2] > 100 µM | [3] > 100 µM | [16] > 100 µM | [4] > 100 µM | [5] > 100 µM | [6] > 100 µM | [7] > 100 µM | [17] > 100 µM | [9] > 100 µM | [10] > 100 µM | [11] > 100 µM | [12] > 100 µM | [13] > 100 µM | [14] > 100 µM | [18] > 100 µM

CC1=C(C(=O)Nc2ccccc2C)C(/C=C/c2ccccc2)C(C(=O)Nc2ccccc2C)=C(C)N1
inactive: [1] > 100 µM | [15] 80 µM | [2] > 100 µM | [3] > 100 µM | [16] > 100 µM | [4] 99.3 µM | [5] 51.1 µM | [6] > 100 µM | [7] > 100 µM | [8] > 100 µM | [17] 74.8 µM | [9] > 100 µM | [10] > 100 µM | [11] > 100 µM | [12] > 100 µM | [13] > 100 µM | [14] > 100 µM

O=C(O)/C(=C/c1ccccc1[N+](=O)[O-])c1cccs1
inactive: [1] > 100 µM | [2] > 100 µM | [3] > 100 µM | [16] > 100 µM | [4] > 100 µM | [6] > 100 µM | [7] > 100 µM | [17] > 100 µM | [9] > 100 µM | [10] > 100 µM | [11] > 100 µM | [12] > 100 µM | [13] > 100 µM | [14] > 100 µM | [18] > 100 µM

COc1cc(C2C(Cl)C(=O)N2NC(=O)c2ccc(N)cc2)cc(Br)c1O (centres undefined)
inactive: [1] 12 µM | [15] 23 µM | [2] 17 µM | [3] 8.38 µM | [16] 21.5 µM | [4] 21.5 µM | [6] 4.19 µM | [7] 15.5 µM | [8] 14.5 µM | [17] 2.75 µM | [9] 15.2 µM | [10] 13.3 µM | [11] 16.2 µM | [12] 16.8 µM | [13] 19.7 µM | [14] 16 µM

C=C1C(=O)O[C@H](c2ccoc2)C[C@@H]1[C@@]1(C)CCCC2(C)C(=O)OCC21 (some centres undefined)
inactive: [1] > 100 µM | [2] > 100 µM | [3] > 100 µM | [16] > 100 µM | [4] > 100 µM | [5] > 100 µM | [6] > 100 µM | [7] > 100 µM | [8] > 100 µM | [17] > 100 µM | [9] > 100 µM | [10] > 100 µM | [11] > 100 µM | [12] > 100 µM | [13] > 100 µM | [14] > 100 µM

O=C(O)COc1ccc2c3c1C(=O)CCC3CO2 (centres undefined)
inactive: [1] > 100 µM | [15] > 100 µM | [2] > 100 µM | [3] > 100 µM | [4] > 100 µM | [6] > 100 µM | [7] > 100 µM | [8] > 100 µM | [17] > 100 µM | [9] > 100 µM | [10] > 100 µM | [11] > 100 µM | [12] > 100 µM | [13] > 100 µM | [14] > 100 µM

C[C@H](C(=O)C12CC3CC(CC(C3)C1)C2)[C@H](O)c1ccccc1
inactive: [15] 21.9 µM | [2] 19 µM | [3] 22.4 µM | [16] 16.8 µM | [4] 40.7 µM | [5] 20.1 µM | [6] 15.2 µM | [7] 29.6 µM | [17] 17.5 µM | [9] 47.9 µM | [10] 22.8 µM | [11] 17.6 µM | [12] 36 µM | [13] 40 µM | [14] 25.5 µM | [18] 29.4 µM

CCOC(=O)C1S/C(=N\c2ccc(OC)c(OC)c2)N=C1C (centres undefined)
inactive: [1] 51.9 µM | [15] 37.2 µM | [2] 29.8 µM | [3] 29.5 µM | [16] 64.1 µM | [4] 34.8 µM | [5] 29.9 µM | [6] 33.6 µM | [7] 46.7 µM | [8] 37.7 µM | [17] 32.5 µM | [9] 42.7 µM | [10] 29.2 µM | [11] 30.6 µM | [12] 39.3 µM | [13] 56.6 µM | [14] 31.3 µM

O=C(O)[C@@H](NS(=O)(=O)c1ccc([N+](=O)[O-])cc1)c1ccccc1
inactive: [1] > 100 µM | [15] > 100 µM | [2] > 100 µM | [3] > 100 µM | [16] > 100 µM | [4] > 100 µM | [5] > 100 µM | [6] > 100 µM | [7] > 100 µM | [8] > 100 µM | [17] > 100 µM | [9] > 100 µM | [10] > 100 µM | [11] > 100 µM | [12] > 100 µM | [13] > 100 µM | [14] > 100 µM

Cn1c2c(c3ccccc31)CCN(CCCCN1CCc3c(n(C)c4ccccc34)C1=O)C2
inactive: [15] > 100 µM | [2] > 100 µM | [3] > 100 µM | [4] > 100 µM | [5] > 100 µM | [6] > 100 µM | [7] > 100 µM | [8] > 100 µM | [9] > 100 µM | [10] > 100 µM | [11] > 100 µM | [12] > 100 µM | [13] > 100 µM
